Reference: ChEMBL document CHEMBL5506049, “Discovery of Novel Small-Molecule-Based Potential PD-L1/EGFR Dual Inhibitors with High Druggability for Glioblastoma Immunotherapy” (J Med Chem, 2024)
Activity calls are given as the source filed them. No cut-off for these calls is given here.

Experiments:
[1] = Clearance in Sprague-Dawley rat at 20 mg/kg, po measured upto 72 hrs by (LC-MS)/MS analysis; assay type: ADME, organism-based; settings: in vivo
[2] = tested on: U-87MG ATCC; experiment: Effect on total ERK1/2 level in human U-87 MG cells at 0.25 to 2 uM incubated for 48 hrs by Western blot analysis; assay type: functional, cell-based; settings: dose 0.25-2 µM
[3] = MRT (0 to infinity) in Sprague-Dawley rat at 20 mg/kg, po measured upto 72 hrs by (LC-MS)/MS analysis; assay type: ADME, organism-based; settings: in vivo
[4] = tested on: U-87 MG; experiment: Induction of cell cycle arrest in human U-87 MG cells assessed as decrease in accumulation of cells at S phase at 2 uM incubated for 48 hrs by flow cytometry (reference value: 30.36%); assay type: functional, U-87MG ATCC; parameters: scale not given: the % may be the effect or the level left
[5] = In vivo antitumor activity against […] GL261 cells xenografted in C57BL/6 mouse assessed as tumor growth inhibition (tumor volume decrease) at 50 mg/kg, IG treated for 21 days relative to control; assay type: functional; settings: GL261, po, 504 h, time 21 day, read-out: TGI
[6] = Volume of distribution in Sprague-Dawley rat at 4 mg/kg, iv measured upto 72 hrs by (LC-MS)/MS analysis; assay type: ADME, organism-based; settings: in vivo
[7] = In vivo antitumor activity against […] GL261 cells xenografted in C57BL/6 mouse assessed as tumor growth inhibition (tumor volume decrease) at 100 mg/kg, IG treated for 21 days relative to control; assay type: functional; settings: GL261, po, 504 h, time 21 day, read-out: TGI
[8] = AUC (0 to infinity) in Sprague-Dawley rat at 20 mg/kg, po measured upto 72 hrs by (LC-MS)/MS analysis; assay type: ADME, organism-based; settings: in vivo
[9] = In vivo antitumor activity against […] GL261 cells xenografted in C57BL/6 mouse assessed as decrease in EGFR phosphorylation in tumor tissue at 100 mg/kg, IG treated for 21 days relative to control; assay type: functional; parameters: scale not given: the % may be the effect or the level left; settings: time 21 day
[10] = Tmax in Sprague-Dawley rat at 4 mg/kg, iv measured upto 72 hrs by (LC-MS)/MS analysis; assay type: ADME, organism-based; settings: in vivo
[11] = AUC (0 to t) in Sprague-Dawley rat at 4 mg/kg, iv measured upto 72 hrs by (LC-MS)/MS analysis; assay type: ADME, organism-based; settings: in vivo
[12] = In vivo antitumor activity against […] GL261 cells xenografted in C57BL/6 mouse assessed as decrease in PD-L1 expression in tumor tissue at 100 mg/kg, IG treated for 21 days relative to control; assay type: functional; parameters: scale not given: the % may be the effect or the level left; settings: time 21 day
[13] = Toxicity in C57BL/6 mouse xenografted with […] GL261 cells assessed as body weight loss at 50 to 100 mg/kg, IG treated for 21 days; assay type: organism-based; settings: in vivo, po, 504 h, dose 50-100 mg/kg, time 21 day
[14] = Toxicity in C57BL/6 mouse xenografted with […] GL261 cells assessed as cell necrosis in lung at 100 mg/kg, IG treated for 21 days by hematoxylin-eosin staining based microscopy assay; assay type: organism-based; settings: in vivo, po, 504 h, time 21 day
[15] = Clearance in Sprague-Dawley rat at 4 mg/kg, iv measured upto 72 hrs by (LC-MS)/MS analysis; assay type: ADME, organism-based; settings: in vivo
[16] = In vivo antitumor activity against […] GL261 cells xenografted in C57BL/6 mouse assessed as decrease in tumor weight at 100 mg/kg, IG treated for 21 days relative to control; assay type: functional; parameters: scale not given: the % may be the effect or the level left; settings: time 21 day
[17] = Volume of distribution in Sprague-Dawley rat at 20 mg/kg, po measured upto 72 hrs by (LC-MS)/MS analysis; assay type: ADME, organism-based; settings: in vivo
[18] = tested on: U-251; experiment: cells; settings: Homo sapiens, U-251, 72 h
Description: Antiproliferative activity against human U-251 cells incubated for 72 hrs by MTT assay

[19] = tested on: U-87 MG; experiment: Cytotoxicity activity against human U-87 MG cells assessed as cell viability at 0.5 uM incubated for 48 hrs by CCK-8 assay relative to control; assay type: functional, U-87MG ATCC; settings: read-out: Activity
[20] = Cmax in Sprague-Dawley rat at 4 mg/kg, iv measured upto 72 hrs by (LC-MS)/MS analysis; assay type: ADME, organism-based; settings: in vivo
[21] = tested on: Glioblastoma cell line; experiment: Antitumor immunity against glioblastoma bearing C57BL/6 mouse model assessed as tumor infiltrating lymphocytes by measuring increase in CD3+CD4+T cells at 100 mg/kg, IG (reference value: 0.91%); assay type: functional
[22] = cells; settings: Homo sapiens, U87MG Human EGFR vIII, 72 h
Description: Antiproliferative activity against human U87vIII cells expressing EGFRvIII incubated for 72 hrs by MTT assay

[23] = Oral bioavailability in Sprague-Dawley rat at 20 mg/kg measured upto 72 hrs by (LC-MS)/MS analysis; assay type: ADME, organism-based; settings: in vivo
[24] = Toxicity in C57BL/6 mouse xenografted with […] GL261 cells assessed as cell necrosis in spleen at 100 mg/kg, IG treated for 21 days by hematoxylin-eosin staining based microscopy assay; assay type: organism-based; settings: in vivo, po, 504 h, time 21 day
[25] = Half life in Sprague-Dawley rat at 4 mg/kg, iv measured upto 72 hrs by (LC-MS)/MS analysis; assay type: ADME, organism-based; settings: in vivo
[26] = tested on: Glioblastoma cell line; experiment: Antitumor immunity against glioblastoma bearing C57BL/6 mouse model assessed as tumor infiltrating lymphocytes by measuring increase in CD3+CD8+T cells at 100 mg/kg, IG (reference value: 3.44%); assay type: functional
[27] = Toxicity in C57BL/6 mouse xenografted with […] GL261 cells assessed as cell necrosis in heart at 100 mg/kg, IG treated for 21 days by hematoxylin-eosin staining based microscopy assay; assay type: organism-based; settings: in vivo, po, 504 h, time 21 day
[28] = In vivo antitumor activity against […] GL261 cells xenografted in C57BL/6 mouse assessed as decrease in tumor volume at 100 mg/kg, IG treated for 21 days relative to control; assay type: functional; parameters: scale not given: the % may be the effect or the level left; settings: time 21 day
[29] = MRT (0 to infinity) in Sprague-Dawley rat at 4 mg/kg, iv measured upto 72 hrs by (LC-MS)/MS analysis; assay type: ADME, organism-based; settings: in vivo
[30] = tested on: U-87 MG; experiment: Induction of cell cycle arrest in human U-87 MG cells assessed as accumulation of cells at G0/G1 phase at 0.5 uM incubated for 48 hrs by flow cytometry (reference value: 60.51%); assay type: functional, U-87MG ATCC
[31] = tested on: U-87 MG; experiment: cells; settings: Homo sapiens, 72 h
Description: Antiproliferative activity against human U-87 MG cells incubated for 72 hrs by MTT assay

[32] = tested on: GL261; experiment: In vivo antitumor activity against […] GL261 cells xenografted in intragastrically dosed C57BL/6 mouse assessed as decrease in tumor size treated for 21 days relative to control; assay type: functional, organism-based; settings: route ig, time 21.0 day
[33] = tested on: U-87 MG; experiment: In vitro immunoregulatory effect in IFN-gamma stimulated human U-87 MG cells co-cultured with PHA-P stimulated with human Jurkat T cell assessed as cytotoxicity by measuring cell viability incubated for 48 hrs by CCK-8 assay relative to control; assay type: functional, cell-based; settings: U-87MG ATCC, dose 0.0625-0.5 µM
[34] = Half life in Sprague-Dawley rat at 20 mg/kg, po measured upto 72 hrs by (LC-MS)/MS analysis; assay type: ADME, organism-based; settings: in vivo
[35] = tested on: U-87 MG; experiment: Induction of cell cycle arrest in human U-87 MG cells assessed as decrease in accumulation of cells at S phase at 1 uM incubated for 48 hrs by flow cytometry (reference value: 30.36%); assay type: functional, U-87MG ATCC; parameters: scale not given: the % may be the effect or the level left
[36] = Ratio of brain to plasma concentration in Sprague-Dawley rat at 5 mg/kg, iv measured after 20 mins; assay type: ADME, organism-based
[37] = tested on: U-87 MG; experiment: Induction of cell cycle arrest in human U-87 MG cells assessed as accumulation of cells at G0/G1 phase at 2 uM incubated for 48 hrs by flow cytometry (reference value: 60.51%); assay type: functional, U-87MG ATCC

COc1cc2ncnc(Nc3cccc(Cl)c3F)c2cc1OCCCCNCc1c(OC)cc(OCc2cccc(-c3ccccc3)c2C)cc1OC
CL/F [1]: 107 mL/min/kg | Activity [2]: inactive | MRT inf [3]: 17.2 h | Activity [4]: 16.72% | inhibition in vivo at 50 mg/kg [5]: 55.8% | Vd [6]: 13.7 L/kg | inhibition in vivo at 100 mg/kg [7]: 89.4% | AUC(0-inf) [8]: 3240 ng·h/mL | Activity [9]: ~50% | Tmax [10]: 2.4 min | AUC(0-t) at 72 h [11]: 2830 ng·h/mL | Activity [12]: ~30% | Activity [13]: Non-Toxic | Activity [14]: Non-Toxic | clearance [15]: 25 mL/min/kg | Activity [16]: 92% | Vd [17]: 123.5 L/kg | IC50 [18]: 1020 nM | viability at 0.5 µM [19]: 96.9% | Cmax [20]: 326 ng/mL | Activity [21]: 3.74% | IC50 [22]: 280 nM | bioavailability [23]: 22.2% | Activity [24]: Non-Toxic | half-life [25]: 6.8 h | Activity [26]: 14.6% | Activity [27]: Non-Toxic | Activity [28]: 89.7% | MRT inf [29]: 12.5 h | Activity [30]: 63.57% | IC50 [31]: 770 nM | Activity [32]: Dose-Dependent Effect | Activity [33]: Dose-Dependent Effect | half-life [34]: 13 h | Activity [35]: 22.89% | BPR [36]: 10% | Activity [37]: 73.98%
